Laboratory results: patent publication US20260226062A1, “COMPOSITIONS USEFUL FOR MODULATING SPLICING” (Skyhawk Therapeutics, Inc., priority 2023, published 2026)
pIC50: −log10 of the molar value.

test system: ATXN3 pre-mRNA; assay: ATXN3 Quantitative Splicing Assay (qPCR, E4E5 primers/probe detecting transcripts containing exon 4); assay type: cell-based; conditions: Human neuroblastoma SK-N-MC cells, 24 h treatment, qPCR of transcripts containing exon 4; read-out: ATXN3 Potency - Splicing: ATXN3 E4E5 IC50
Experimental: Human neuroblastoma SK-N-MC cells were plated in 384-well plates at 20,000 cells/well. Twenty-four hours after plating, cells were treated with compounds for 24 h at appropriate concentrations ranging from 30 μM to 0.6 nM (0.3% DMSO). Treated cells were lysed in 15 μL of lysis buffer, and cDNA was synthesized using the Fast Advanced Cells-to-Ct kit. Two μL of each cDNA was used in qPCR reactions to confirm the exon 4 skipped transcripts of ATXN3. A second set of primers/probe E4E5 was used to detect the transcripts containing exon 4. The third set of primers/probe E8E9 was used to detect total gene level of ATXN3. The qPCR reactions were prepared in 384-well plates in 10 μL volume, using TaqMan™ Fast Advanced Master Mix with primers and probes shown in the table below. Reactions were run in a Quant Studio 6 qPCR instrument with default settings.
The primers and probes are listed below in Table 3.

pIC50	Structure (SMILES)
6.30 to 7.00	C[C@H](F)[C@H](N)Cc1cc2c(NCc3nccs3)nc(Cl)nn2c1Cl [Compound 5, 6-((2R,3S)-2-amino-3-fluorobutyl)-2,7-dichloro-N-(thiazol-2-ylmethyl)pyrrolo[2,1-f][1,2,4]triazin-4-amine]
5.30 to 6.30	Cc1c(C[C@@H](N)[C@H](C)F)cc2c(NCc3ncco3)nc(Cl)nn12 [Compound 2, 6-((2R,3S)-2-amino-3-fluorobutyl)-2-chloro-7-methyl-N-(oxazol-2-ylmethyl)pyrrolo[2,1-f][1,2,4]triazin-4-amine]
6.30 to 7.00	Cc1c(C[C@@H](N)[C@H](C)F)cc2c(NCc3nccs3)nc(Cl)nn12 [Compound 4, 6-((2R,3S)-2-amino-3-fluorobutyl)-2-chloro-7-methyl-N-(thiazol-2-ylmethyl)pyrrolo[2,1-f][1,2,4]triazin-4-amine]
7.00 to 11.00	C[C@H](F)[C@H](N)Cc1cc2c(NCc3ccsn3)nc(Cl)nn2c1Br [Compound 8, 6-((2R,3S)-2-amino-3-fluorobutyl)-7-bromo-2-chloro-N-(isothiazol-3-ylmethyl)pyrrolo[2,1-f][1,2,4]triazin-4-amine]
6.30 to 7.00	C[C@H](F)[C@H](N)Cc1cc2c(NCc3ccon3)nc(Cl)nn2c1Br [Compound 7, 6-((2R,3S)-2-amino-3-fluorobutyl)-7-bromo-2-chloro-N-(isoxazol-3-ylmethyl)pyrrolo[2,1-f][1,2,4]triazin-4-amine]
6.30 to 7.00	C[C@H](F)[C@H](N)Cc1cc2c(NCc3ncco3)nc(Cl)nn2c1Cl [Compound 6, 6-((2R,3S)-2-amino-3-fluorobutyl)-2,7-dichloro-N-(oxazol-2-ylmethyl)pyrrolo[2,1-f][1,2,4]triazin-4-amine]
5.30 to 6.30	Cc1c(C[C@@H](N)[C@H](C)F)cc2c(NCc3ccon3)nc(Cl)nn12 [Compound 9, 6-((2R,3S)-2-amino-3-fluorobutyl)-2-chloro-N-(isoxazol-3-ylmethyl)-7-methylpyrrolo[2,1-f][1,2,4]triazin-4-amine]
6.30 to 7.00	C[C@H](F)[C@H](N)Cc1cc2c(NCc3ncco3)nc(Cl)nn2c1Br [Compound 1, 6-((2R,3S)-2-amino-3-fluorobutyl)-7-bromo-2-chloro-N-(oxazol-2-ylmethyl)pyrrolo[2,1-f][1,2,4]triazin-4-amine]
6.30 to 7.00	C[C@H](F)[C@H](N)Cc1cc2c(NCc3nccs3)nc(Cl)nn2c1Br [Compound 3, 6-((2R,3S)-2-amino-3-fluorobutyl)-7-bromo-2-chloro-N-(thiazol-2-ylmethyl)pyrrolo[2,1-f][1,2,4]triazin-4-amine]
6.30 to 7.00	Cc1c(C[C@@H](N)[C@H](C)F)cc2c(NCc3ccsn3)nc(Cl)nn12 [Compound 10, 6-((2R,3S)-2-amino-3-fluorobutyl)-2-chloro-N-(isothiazol-3-ylmethyl)-7-methylpyrrolo[2,1-f][1,2,4]triazin-4-amine]
